# Experimental data published in ChEMBL document CHEMBL1137831, “Synthesis and antibacterial activity of some aryloxy/thioaryloxy oxazolidinone derivatives” (2004).
# Tests used:
# [1] = test system: Salmonella typhi; experiment: Minimal inhibitory concentration against Salmonella typhi (MDR) ICH 098; assay type: functional, Salmonella enterica subsp. enterica serovar Typhi; details: Salmonella enterica
# [2] = test system: Staphylococcus epidermidis; experiment: Minimal inhibitory concentration against methicillin resistant Staphylococcus epidermidis ATCC 23760; assay type: functional
# [3] = test system: Serratia marcescens; experiment: Minimal inhibitory concentration against Serratia marcescens ATCC 12999; assay type: functional
# [4] = test system: Staphylococcus aureus; experiment: Minimal inhibitory concentration against Staphylococcus aureus ATCC 25923; assay type: functional
# [5] = test system: Pseudomonas aeruginosa; experiment: Minimal inhibitory concentration against Pseudomonas aeruginosa ATCC 27853; assay type: functional
# [6] = test system: Klebsiella pneumoniae; experiment: Minimal inhibitory concentration against Klebsiella pneumoniae ATCC 15380; assay type: functional
# [7] = test system: Escherichia coli; experiment: Minimal inhibitory concentration against Escherichia coli ATCC 25922; assay type: functional
# [8] = test system: Staphylococcus aureus; experiment: Minimal inhibitory concentration against methicillin resistant Staphylococcus aureus ST450; assay type: functional
# [9] = test system: Bacillus cereus; experiment: Minimal inhibitory concentration against Bacillus cereus; assay type: functional
# [10] = test system: Enterococcus faecium; experiment: Minimal inhibitory concentration against Enterococcus faecium 6A-VRE; assay type: functional
# [11] = test system: Enterococcus faecalis; experiment: Minimal inhibitory concentration against Enterococcus faecalis (VRE) ATCC 346-VRE; assay type: functional
# [12] = test system: Salmonella enterica subsp. enterica serovar Abony; experiment: Minimal inhibitory concentration against Salmonella abony NCTC 6017; assay type: functional
# [13] = test system: Staphylococcus epidermidis; experiment: Minimal inhibitory concentration against Staphylococcus epidermidis ATCC 12228; assay type: functional
# [14] = test system: Enterococcus durans; experiment: Minimal inhibitory concentration against Enterococcus durans ATCC 581; assay type: functional
# [15] = test system: Enterococcus faecalis; experiment: Minimal inhibitory concentration against Enterococcus faecalis ATCC 29212; assay type: functional
# [16] = test system: Staphylococcus aureus; experiment: Minimal inhibitory concentration against methicillin resistant Staphylococcus aureus ST450; value ranges from 4-16 ug/mL; assay type: functional
# [17] = test system: Staphylococcus aureus; experiment: Minimal inhibitory concentration against methicillin resistant Staphylococcus aureus ST450; value ranges from 4-8 ug/mL; assay type: functional
# [18] = test system: Staphylococcus aureus; experiment: Minimal inhibitory concentration against Staphylococcus aureus ATCC 25923; value ranges from 4-8 ug/mL; assay type: functional
# [19] = test system: Staphylococcus aureus; experiment: Minimal inhibitory concentration against methicillin resistant Staphylococcus aureus ST450; value ranges from 2-4 ug/mL; assay type: functional
# [20] = test system: Staphylococcus aureus; experiment: Minimal inhibitory concentration against methicillin resistant Staphylococcus aureus ST450; value ranges from 1-2 ug/mL; assay type: functional
structure (smiles),measurement,setting,value
CC(=O)Nc1ccc(Sc2ccc(N3C[C@H](C/N=C(/S)NC4CC4)OC3=O)cc2F)cc1,MIC,[1],> 16 µg/mL
same,MIC,[2],8 µg/mL
same,MIC,[3],> 16 µg/mL
same,MIC,[4],16 µg/mL
same,MIC,[5],> 16 µg/mL
same,MIC,[6],> 16 µg/mL
same,MIC,[7],> 16 µg/mL
same,MIC,[8],16 µg/mL
same,MIC,[9],> 16 µg/mL
same,MIC,[10],8 µg/mL
same,MIC,[11],> 16 µg/mL
same,MIC,[12],> 16 µg/mL
same,MIC,[13],8 µg/mL
same,MIC,[14],8 µg/mL
same,MIC,[15],8 µg/mL
CC(=O)Nc1ccc(Oc2ccc(N3C[C@H](C/N=C(/S)NN)OC3=O)cc2F)cc1,MIC,[1],> 16 µg/mL
same,MIC,[2],8 µg/mL
same,MIC,[3],> 16 µg/mL
same,MIC,[4],4 µg/mL
same,MIC,[5],> 16 µg/mL
same,MIC,[6],> 16 µg/mL
same,MIC,[7],> 16 µg/mL
same,MIC,[9],> 16 µg/mL
same,MIC,[10],4 µg/mL
same,MIC,[11],8 µg/mL
same,MIC,[12],> 16 µg/mL
same,MIC,[13],4 µg/mL
same,MIC,[14],4 µg/mL
same,MIC,[15],4 µg/mL
same,MIC,[16],16 µg/mL
CO/C(S)=N\C[C@H]1CN(c2ccc(Sc3ccc(NC(C)=O)cc3)c(F)c2)C(=O)O1,MIC,[1],> 16 µg/mL
same,MIC,[2],8 µg/mL
same,MIC,[3],> 16 µg/mL
same,MIC,[5],> 16 µg/mL
same,MIC,[6],> 16 µg/mL
same,MIC,[7],> 16 µg/mL
same,MIC,[17],8 µg/mL
same,MIC,[9],> 16 µg/mL
same,MIC,[10],4 µg/mL
same,MIC,[18],8 µg/mL
same,MIC,[11],8 µg/mL
same,MIC,[12],> 16 µg/mL
same,MIC,[13],4 µg/mL
same,MIC,[14],4 µg/mL
same,MIC,[15],4 µg/mL
CC(=O)NC[C@H]1CN(c2ccc(Oc3ccc(NC(C)=O)cc3)c(F)c2)C(=O)O1,MIC,[1],> 16 µg/mL
same,MIC,[2],4 µg/mL
same,MIC,[3],> 16 µg/mL
same,MIC,[4],2 µg/mL
same,MIC,[19],4 µg/mL
same,MIC,[5],> 16 µg/mL
same,MIC,[6],> 16 µg/mL
same,MIC,[7],> 16 µg/mL
same,MIC,[9],> 16 µg/mL
same,MIC,[10],4 µg/mL
same,MIC,[11],4 µg/mL
same,MIC,[12],> 16 µg/mL
same,MIC,[13],2 µg/mL
same,MIC,[14],4 µg/mL
same,MIC,[15],4 µg/mL
CC(=O)NC[C@H]1CN(c2ccc(Oc3ccccc3NC(C)=O)c(F)c2)C(=O)O1,MIC,[1],> 16 µg/mL
same,MIC,[2],> 16 µg/mL
same,MIC,[3],> 16 µg/mL
same,MIC,[4],> 16 µg/mL
same,MIC,[5],> 16 µg/mL
same,MIC,[6],> 16 µg/mL
same,MIC,[7],> 16 µg/mL
same,MIC,[8],> 16 µg/mL
same,MIC,[9],> 16 µg/mL
same,MIC,[10],> 16 µg/mL
same,MIC,[11],> 16 µg/mL
same,MIC,[12],> 16 µg/mL
same,MIC,[13],> 16 µg/mL
same,MIC,[14],> 16 µg/mL
same,MIC,[15],> 16 µg/mL
CC(=O)Nc1ccc(Sc2ccc(N3C[C@H](C/N=C(/S)NN)OC3=O)cc2F)cc1,MIC,[1],> 16 µg/mL
same,MIC,[2],4 µg/mL
same,MIC,[3],> 16 µg/mL
same,MIC,[4],4 µg/mL
same,MIC,[5],> 16 µg/mL
same,MIC,[6],> 16 µg/mL
same,MIC,[7],> 16 µg/mL
same,MIC,[17],8 µg/mL
same,MIC,[9],> 16 µg/mL
same,MIC,[10],16 µg/mL
same,MIC,[11],8 µg/mL
same,MIC,[12],> 16 µg/mL
same,MIC,[13],4 µg/mL
same,MIC,[14],8 µg/mL
same,MIC,[15],4 µg/mL
CC(=O)NC[C@H]1CN(c2ccc(Sc3ccc(NC(C)=O)cc3)c(F)c2)C(=O)O1,MIC,[1],> 16 µg/mL
same,MIC,[2],2 µg/mL
same,MIC,[3],> 16 µg/mL
same,MIC,[4],1 µg/mL
same,MIC,[5],> 16 µg/mL
same,MIC,[6],> 16 µg/mL
same,MIC,[7],> 16 µg/mL
same,MIC,[9],> 16 µg/mL
same,MIC,[10],2 µg/mL
same,MIC,[11],2 µg/mL
same,MIC,[12],> 16 µg/mL
same,MIC,[20],2 µg/mL
same,MIC,[13],1 µg/mL
same,MIC,[14],2 µg/mL
same,MIC,[15],2 µg/mL
